Reference: ChEMBL document CHEMBL1201862, “PubChem BioAssay data set” (2004)
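48-hour exposure; five concentrations; linearly interpolated endpoints. The concentration for 50% growth inhibition is given as GI50.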 Active and inactive are the calls of the source. Rule as the data show it: active = GI50 up to about 1.1 µM and inactive = higher.

Tests used:
Test in all cases: NCI-60 cell line screen, 48 h
786-0 = test system: 786-0
A498 = test system: A498
A549 = test system: A549
ACHN = test system: ACHN
CAKI-1 = test system: CAKI-1
CCRF-CEM = test system: CCRF-CEM
COLO 205 = test system: COLO 205
DLD-1 = test system: DLD-1
DMS-273 = test system: DMS-273
EKVX = test system: EKVX
HCC 2998 = test system: HCC 2998
HCT-116 = test system: HCT-116
HCT-15 = test system: HCT-15
HL-60 = test system: HL-60
HOP-18 = test system: HOP-18
HOP-62 = test system: HOP-62
HOP-92 = test system: HOP-92
IGROV-1 = test system: IGROV-1
K562 = test system: K562
KM-20L2 = test system: KM-20L2
KM12 = test system: KM12
LOX IMVI = test system: LOX IMVI
LXFL 529 = test system: LXFL 529
M14 = test system: M14
MOLT-4 = test system: MOLT-4
Malme-3M = test system: Malme-3M
NCI-H226 = test system: NCI-H226
NCI-H23 = test system: NCI-H23
NCI-H460 = test system: NCI-H460
NCI-H522 = test system: NCI-H522
OVCAR-3 = test system: OVCAR-3
OVCAR-4 = test system: OVCAR-4
OVCAR-5 = test system: OVCAR-5
OVCAR-8 = test system: OVCAR-8
RXF 393 = test system: RXF 393
SF-268 = test system: SF-268
SF-295 = test system: SF-295
SF-539 = test system: SF-539
SK-MEL-28 = test system: SK-MEL-28
SK-MEL-2 = test system: SK-MEL-2
SK-MEL-5 = test system: SK-MEL-5
SK-OV-3 = test system: SK-OV-3
SN12C = test system: SN12C
SNB-19 = test system: SNB-19
SNB-75 = test system: SNB-75
SR = test system: SR
SW-620 = test system: SW-620
TK-10 = test system: TK-10
U-251 = test system: U-251
UACC-257 = test system: UACC-257
UACC-62 = test system: UACC-62
UO-31 = test system: UO-31
XF498 = test system: XF498
DMS-114 = test system: DMS-114
HT-29 = test system: HT-29
M19-MEL = test system: M19-MEL
RPMI-8226 = test system: RPMI-8226
SNB-78 = test system: SNB-78

Structure (SMILES): Cc1cc([N+](=O)[O-])ccc1Sc1c2ccccc2nc2ccccc12
- GI50 (786-0): 23.6 µM (inactive)
- GI50 (A498): > 100 µM (inactive)
- GI50 (A549): 64.6 µM (inactive)
- GI50 (ACHN): 48.9 µM (inactive)
- GI50 (CAKI-1): 26.4 µM (inactive)
- GI50 (CCRF-CEM): 21.8 µM (inactive)
- GI50 (COLO 205): 39.9 µM (inactive)
- GI50 (DLD-1): 25.4 µM (inactive)
- GI50 (DMS-273): 33 µM (inactive)
- GI50 (EKVX): 39 µM (inactive)
- GI50 (HCC 2998): 25.4 µM (inactive)
- GI50 (HCT-116): 22.5 µM (inactive)
- GI50 (HCT-15): 22.5 µM
- GI50 (HL-60): 3.03 µM (inactive)
- GI50 (HOP-18): 64 µM (inactive)
- GI50 (HOP-62): > 100 µM (inactive)
- GI50 (HOP-92): 48.3 µM (inactive)
- GI50 (IGROV-1): 28.4 µM (inactive)
- GI50 (K562): 32.1 µM (inactive)
- GI50 (KM-20L2): 31.4 µM (inactive)
- GI50 (KM12): 18.5 µM (inactive)
- GI50 (LOX IMVI): 20 µM (inactive)
- GI50 (LXFL 529): 18.7 µM (inactive)
- GI50 (M14): 32.6 µM (inactive)
- GI50 (MOLT-4): 15.7 µM (inactive)
- GI50 (Malme-3M): > 100 µM (inactive)
- GI50 (NCI-H226): > 100 µM (inactive)
- GI50 (NCI-H23): 33 µM (inactive)
- GI50 (NCI-H460): 32 µM (inactive)
- GI50 (NCI-H522): 18.1 µM (inactive)
- GI50 (OVCAR-3): 41.4 µM (inactive)
- GI50 (OVCAR-4): 57.8 µM (inactive)
- GI50 (OVCAR-5): > 100 µM (inactive)
- GI50 (OVCAR-8): 29.1 µM (inactive)
- GI50 (RXF 393): 57.5 µM (inactive)
- GI50 (SF-268): 41 µM (inactive)
- GI50 (SF-295): 39.4 µM (inactive)
- GI50 (SF-539): 28.4 µM (inactive)
- GI50 (SK-MEL-28): > 100 µM (inactive)
- GI50 (SK-MEL-2): 23.1 µM (inactive)
- GI50 (SK-MEL-5): 43.1 µM (inactive)
- GI50 (SK-OV-3): 31.3 µM (inactive)
- GI50 (SN12C): 39.6 µM (inactive)
- GI50 (SNB-19): 45.5 µM (inactive)
- GI50 (SNB-75): 39.6 µM (inactive)
- GI50 (SR): 27.7 µM (inactive)
- GI50 (SW-620): 22.6 µM (inactive)
- GI50 (TK-10): 57 µM (inactive)
- GI50 (U-251): 28.5 µM (inactive)
- GI50 (UACC-257): 29.4 µM (inactive)
- GI50 (UACC-62): 25.1 µM (inactive)
- GI50 (UO-31): 44.7 µM (inactive)
- GI50 (XF498): 17.5 µM (inactive)

Structure (SMILES): COc1cccc(NC(=O)CC(=O)N2N=C(n3ccc4ccccc43)CC2c2ccccc2)c1 (stereo unspecified)
- GI50 (786-0): > 100 µM (inactive)
- GI50 (A498): > 100 µM (inactive)
- GI50 (A549): > 100 µM (inactive)
- GI50 (ACHN): > 100 µM (inactive)
- GI50 (CCRF-CEM): > 100 µM (inactive)
- GI50 (COLO 205): > 100 µM (inactive)
- GI50 (DLD-1): > 100 µM (inactive)
- GI50 (DMS-114): > 100 µM (inactive)
- GI50 (DMS-273): > 100 µM (inactive)
- GI50 (EKVX): > 100 µM (inactive)
- GI50 (HCC 2998): > 100 µM (inactive)
- GI50 (HCT-116): > 100 µM (inactive)
- GI50 (HCT-15): > 100 µM
- GI50 (HL-60): > 100 µM (inactive)
- GI50 (HOP-18): > 100 µM (inactive)
- GI50 (HOP-62): > 100 µM (inactive)
- GI50 (HOP-92): 55.6 µM (inactive)
- GI50 (HT-29): > 100 µM (inactive)
- GI50 (IGROV-1): > 100 µM (inactive)
- GI50 (K562): > 100 µM (inactive)
- GI50 (KM-20L2): > 100 µM (inactive)
- GI50 (KM12): > 100 µM (inactive)
- GI50 (LOX IMVI): > 100 µM (inactive)
- GI50 (LXFL 529): > 100 µM (inactive)
- GI50 (M14): > 100 µM (inactive)
- GI50 (M19-MEL): > 100 µM (inactive)
- GI50 (MOLT-4): > 100 µM (inactive)
- GI50 (Malme-3M): > 100 µM (inactive)
- GI50 (NCI-H23): > 100 µM (inactive)
- GI50 (NCI-H460): > 100 µM (inactive)
- GI50 (NCI-H522): > 100 µM (inactive)
- GI50 (OVCAR-3): > 100 µM (inactive)
- GI50 (OVCAR-4): > 100 µM (inactive)
- GI50 (OVCAR-5): > 100 µM (inactive)
- GI50 (OVCAR-8): > 100 µM (inactive)
- GI50 (RPMI-8226): > 100 µM (inactive)
- GI50 (RXF 393): > 100 µM (inactive)
- GI50 (SF-268): > 100 µM (inactive)
- GI50 (SF-295): > 100 µM (inactive)
- GI50 (SF-539): > 100 µM (inactive)
- GI50 (SK-MEL-28): > 100 µM (inactive)
- GI50 (SK-MEL-2): > 100 µM (inactive)
- GI50 (SK-OV-3): > 100 µM (inactive)
- GI50 (SN12C): > 100 µM (inactive)
- GI50 (SNB-19): > 100 µM (inactive)
- GI50 (SNB-75): 71.3 µM (inactive)
- GI50 (SNB-78): > 100 µM (inactive)
- GI50 (SW-620): > 100 µM (inactive)
- GI50 (TK-10): > 100 µM (inactive)
- GI50 (U-251): > 100 µM (inactive)
- GI50 (UACC-257): > 100 µM (inactive)
- GI50 (UACC-62): > 100 µM (inactive)
- GI50 (UO-31): > 100 µM (inactive)
